Laboratory results: PMC9828418 (Angewandte Chemie (International Ed. in English), 2022)
Read-outs that look alike come from different tables or passages of the source.

Key:
[1] = 0.6 M NaClO4, 25 °C; cited from earlier work
[2] = Protonation constants of Bi^III complexes by pH-potentiometry; assay type: physicochemical; conditions: 0.15 M NaClO4, 25 °C
[3] = assay type: physicochemical; conditions: 0.15 M NaClO4, 25 °C

| Compound | logK BiL (stability constant) [1] | logK Bi(HL) (protonation constant of complex) [2] | logK BiL (stability constant) [3] | logK BiL (stability constant) ([3]; listed as B) | logK BiL (stability constant) ([3]; listed as A) |
| --- | --- | --- | --- | --- | --- |
| O=C([O-])CN(CCN(CC(=O)[O-])CC(=O)[O-])CCN(CC(=O)[O-])CC(=O)[O-].[Bi+3] [[Bi(DTPA)]^2−] | 29.29 | – | – | – | – |
| O=C([O-])CCCCC1(N(CC(=O)[O-])CC(=O)[O-])CN(CC(=O)[O-])CCN(CC(=O)[O-])C1.[Bi+3] [[Bi(AAZTA‐C4‐COO^−)]^2−] | – | 4.74(4) | 28.75 | 28.75(8) | – |
| CC1(N(CC(=O)[O-])CC(=O)[O-])CN(CC(=O)[O-])CCN(CC(=O)[O-])C1.[Bi+3] [[Bi(AAZTA)]^−] | – | 1.63(3) | 26.45 | – | 26.45(6) |
